The test system of one assay is P. aeruginosa. The experiment in a line: Checkerboard synergy assay (FICI) with antibiotics against P. aeruginosa. It is filed as cell-based, Pseudomonas aeruginosa. As to conditions: for MIC (dual agent): GN370 + meropenem. The procedure, abridged: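 Checkerboard of 2-fold antibiotic dilutions crossed with GN370 (lysin peptide), bacteria at 1×10^5 CFU/ml in CAA, with or without human serum or pulmonary surfactant. ΣFICmin taken as FICI: ≤0.5 synergy, >0.5–≤1 additive, >1 indifferent.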

The test system of a further assay is A. xylosoxidans. The assay can be described thus: Serial passage resistance development study, A. xylosoxidans. The following applies: A. xylosoxidans, day 28. It is filed as cell-based, Achromobacter xylosoxidans.
In a further assay the test system is P. aeruginosa AR-769. The experiment in a line: Repeat dose study of AM1 in the rabbit pulmonary infection model. It is filed as in vivo. As to conditions: for Log CFU change v. pre-treatment (at 6 hours) / Mean Bacterial Density in Lung ± SD / Survival: rabbit.
Setting [1] is: P. aeruginosa (ATCC 27853, CFS 1766).
Where [2] appears, read: AM1 1 mg/kg i.v. every 24 hours (n = 7).
Where [3] appears, read: AM1 5 mg/kg i.v. every 24 hours (n = 8).

Two compounds from patent US20240181022A1, “AMURINS LYSINS, AND LYSIN-ANTIMICROBIAL PEPTIDE (AMP) CONSTRUCTS ACTIVE AGAINST GRAM-NEGATIVE BACTERIA” (priority 2021, published 2024) can be followed below.

Where no end group is shown, it is not given here.

Take `C[C@@H](O)[C@H]1C(=O)N2C(C(=O)O)=C(S[C@@H]3CN[C@H](C(=O)N(C)C)C3)[C@H](C)[C@H]12` [meropenem, reference compound]: the values for the MIC (alone) in the assay on P. aeruginosa (setting [1]), with P. aeruginosa (P. aeruginosa (CFS 2045)) and in the assay with P. aeruginosa (P. aeruginosa (CFS 2061)) were 8 µg/mL, 32 µg/mL and 64 µg/mL, respectively. For the same compound, the MIC (dual agent) in the assay with P. aeruginosa (setting [1]) came out at 0.25 µg/mL; in the assay with P. aeruginosa (P. aeruginosa (CFS 2045)) it was 4 µg/mL; with P. aeruginosa (P. aeruginosa (CFS 2061)), 4 µg/mL. The “FICI of the antibiotic with GN370” value in the assay on P. aeruginosa (P. aeruginosa ATCC 27853, checkerboard) turned out to be 0.375. The Antibiotic MIC (single agent) in the assay with P. aeruginosa (P. aeruginosa strain AR-769) came to 64 µg/mL. For the same compound, the “Antibiotic FIC” value with P. aeruginosa (P. aeruginosa strain AR-769, in combination with GN370) was 0.125. Moreover, the “Antibiotic MIC (combo)” value in the assay on P. aeruginosa (P. aeruginosa strain AR-769, in combination with GN370, in µg/mL) is recorded as 8.
For “MRLKMARRRYRLPRRRSRRLFSRTALRMHPRNRLRRIMRGGIRF [AM1]”, in the assay on A. xylosoxidans, the “change in MIC over serial passage” value was “no increase in the MICs”. In addition, the “mean bacterial density in lungs compared to the vehicle control group” value with P. aeruginosa AR-769 (agent alone, intravenous, treatment from 6 hours post-infection) is given as “moderate to no CFU/g reduction”. In addition, in the assay on P. aeruginosa AR-769 (setting [2]), the “Log CFU change v. pre-treatment (at 6 hours)” value was 1.56 Log CFU, the “Mean Bacterial Density in Lung ± SD” value was 9.02 ± 1.49 Log CFU/lung and the Survival worked out at 0%. In addition, in the assay with P. aeruginosa AR-769 (setting [3]), the “Log CFU change v. pre-treatment (at 6 hours)” value was 1.80 Log CFU, the “Mean Bacterial Density in Lung ± SD” value is 8.98 ± 1.47 Log CFU/lung and the Survival is recorded as 37.5%.
